We go through five molecules from PubChem BioAssay (NCI).

Among the test systems are SNB-19 CNS; SF-539 CNS; MDA-MB-435; M14 melanoma; UACC-62 melanoma; SN12C renal; HS 578T breast; HL-60(TB) leukemia; MDA-N; TK-10 renal; CAKI-1 renal; SW-620 colon; SK-MEL-5 melanoma; OVCAR-5 ovarian; UO-31 renal; CCRF-CEM leukemia; NCI-H522 lung.
Experiment in all cases: NCI anticancer screen, dose series, 48 h

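Briefly, cells in 96-well plates were exposed to five compound concentrations for 48 h, and endpoints were estimated by linear interpolation. TGI: total growth inhibition.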 Where only a bound is given, the exact number is not on record here.

In the case of `O=C(CNc1ccc([N+](=O)[O-])cc1)Nn1c(-c2ccccc2)nc2ccccc2c1=O`, the TGI in the assay on SNB-19 CNS came to 23.1 µM; in the assay with SF-539 CNS, 6.61 µM; in the assay with MDA-MB-435, 14.6 µM; with M14 melanoma it was 8.59 µM; with UACC-62 melanoma, 2.19 µM; with SN12C renal, 5.19 µM. The TGI in the assay on HS 578T breast amounted to 8.22 µM; in the assay with HL-60(TB) leukemia, 14 µM; in the assay on MDA-N it was 13.8 µM; with TK-10 renal it was 17 µM; with CAKI-1 renal, 5.15 µM; in the assay on SW-620 colon it was 5.02 µM. Moreover, the TGI with SK-MEL-5 melanoma is 2.61 µM; in the assay on OVCAR-5 ovarian it was 16.3 µM; in the assay with UO-31 renal, 14.1 µM; in the assay on CCRF-CEM leukemia, greater than 21.6 µM; with NCI-H522 lung, 4.79 µM.
Take `CC(=O)n1nc(-c2[nH]c(C)c(-c3nn(C(C)=O)c(=S)o3)c2C)oc1=S`: the TGI in the assay on SNB-19 CNS, in the assay with SF-539 CNS, with MDA-MB-435, in the assay on M14 melanoma, with UACC-62 melanoma and with SN12C renal was greater than 100 µM throughout. In addition, the TGI in the assay on HS 578T breast, with HL-60(TB) leukemia, with MDA-N, in the assay on TK-10 renal, in the assay on CAKI-1 renal and in the assay with SW-620 colon was greater than 100 µM in each case. The TGI was greater than 100 µM in the assay on SK-MEL-5 melanoma; greater than 100 µM in the assay with OVCAR-5 ovarian; greater than 100 µM in the assay on UO-31 renal; greater than 71.4 µM in the assay with CCRF-CEM leukemia; greater than 100 µM in the assay on NCI-H522 lung.
As to `CC(=O)Nn1c(Cc2ccc(Cl)cc2)nn(C)c1=O`, the TGI in the assay with SNB-19 CNS, in the assay with SF-539 CNS, in the assay on MDA-MB-435, with M14 melanoma, in the assay with UACC-62 melanoma and with SN12C renal was greater than 100 µM each time. In addition, the TGI with HS 578T breast, in the assay on HL-60(TB) leukemia, with MDA-N, with TK-10 renal, with CAKI-1 renal and in the assay on SW-620 colon was greater than 100 µM in each case. Further, the TGI with SK-MEL-5 melanoma, in the assay on OVCAR-5 ovarian, with UO-31 renal, with CCRF-CEM leukemia and in the assay on NCI-H522 lung was greater than 100 µM each time.
Turning to `NC(=S)NN=Cc1ccccc1OCc1cccc(COc2ccccc2C=NNC(N)=S)n1`, the TGI was 46.3 µM with SNB-19 CNS; greater than 34.6 µM in the assay on SF-539 CNS; greater than 100 µM in the assay with MDA-MB-435; greater than 100 µM in the assay on M14 melanoma; greater than 100 µM in the assay on UACC-62 melanoma; greater than 100 µM in the assay on SN12C renal. Further, the TGI is greater than 100 µM in the assay with HS 578T breast; greater than 100 µM in the assay on HL-60(TB) leukemia; greater than 100 µM in the assay with MDA-N; 32.3 µM with TK-10 renal; greater than 100 µM in the assay with CAKI-1 renal; greater than 100 µM in the assay with SW-620 colon. Further, the TGI in the assay on SK-MEL-5 melanoma is greater than 100 µM; in the assay on OVCAR-5 ovarian it was greater than 100 µM; in the assay with UO-31 renal, greater than 93.5 µM; in the assay on CCRF-CEM leukemia, greater than 100 µM; with NCI-H522 lung, greater than 100 µM.
On to `O=c1c2c3c(sc2nc2n1sc1nc4sc5c(c4c(=O)n12)CCCC5)CCCC3`, for which the TGI in the assay with SNB-19 CNS, in the assay on SF-539 CNS, with MDA-MB-435, in the assay on M14 melanoma, in the assay with UACC-62 melanoma and in the assay on SN12C renal was greater than 100 µM each time. For the same molecule, the TGI with HS 578T breast was greater than 100 µM; with HL-60(TB) leukemia, 62.3 µM; with MDA-N, 97.4 µM; with TK-10 renal it was greater than 100 µM; in the assay with CAKI-1 renal, 36.4 µM; with SW-620 colon, 63.5 µM. The TGI in the assay with SK-MEL-5 melanoma is greater than 100 µM; with OVCAR-5 ovarian it was greater than 100 µM; in the assay with UO-31 renal, 43.9 µM; in the assay with CCRF-CEM leukemia, 60.7 µM; with NCI-H522 lung it was 31.1 µM.
